Source: patent publication US10072025B2, “Ethyl N-boc piperidinyl pyrazolo pyridones as Janus kinase inhibitors” (Merck Sharp & Dohme Corp., priority 2014, dated 2018)

How the values were obtained:
JAK1 = JAK1 (Homo sapiens (Human), UniProt P23458); assay: Jak Biochemical HTRF Assay (JAK1); conditions: recombinant purified GST-tagged catalytic domain; HTRF; [ATP] 31.8 μM; [E] 1.405 nM
Experimental: (§1) Jak Biochemical HTRF Assay Protocol
(§2) The ability of compounds to inhibit the activity of JAK1, JAK2, JAK3, and Tyk2 was measured using a recombinant purified GST-tagged catalytic domain for each enzyme (Invitrogen JAK1 #M4290, JAK2 #M4290, JAK3 #M4290, Tyk2 #M4290) in an HTRF format biochemical assay. […] The basic assay protocol is as follows: First, 250 nL of diluted compounds in DMSO were dispensed into the wells of a dry 384-well Black plate (Greiner #781076) using a Labcyte Echo 555 acoustic dispenser. Subsequent reagent additions employed an Agilent Bravo. Next, 18 μL of 1.11× enzyme and 1.11× substrate in 1× assay buffer (Invitrogen kinase buffer # PV3189, 2 mM DTT, 0.05% BSA) were added to the wells and shaken and then preincubated for 30 minutes at room temperature to allow compound binding to equilibrate. After equilibration, 2 μL of 10×ATP in 1× assay buffer was added to initiate the kinase reaction and the plates were shaken and then incubated at room temperature for 120 minutes. At the end of the incubation, 20 μL of 2× stop buffer (streptavidin-Dylight 650 (Thermo #84547B/100 mL), Eu-tagged pY20 antibody (Perkin Elmer #AD0067), EDTA, HEPES, and Triton) was added to quench the reaction. Plates were shaken and centrifuged and then incubated 60 minutes at room temperature and then read on a Perkin Elmer Envision (Xex=337 nm, λem=665 and 615 nm, TRF delay time=20 μs). HTRF signal=10,000*665 nm reading/615 nm reading. After normalization to untreated controls, the percent inhibition of the HTRF signal at each compound concentration was calculated. The plot of percent inhibition versus the log of compound concentration was fit with a 4-parameter dose response equation to calculate IC50 values.

JAK2 = JAK2 (Homo sapiens (Human), UniProt O60674); assay: Jak Biochemical HTRF Assay (JAK2); conditions: recombinant purified GST-tagged catalytic domain, [ATP] 8.5 μM, [E] 0.052 nM
Experimental: as §1, §2

Chain of JAK2 (O60674 849-1124): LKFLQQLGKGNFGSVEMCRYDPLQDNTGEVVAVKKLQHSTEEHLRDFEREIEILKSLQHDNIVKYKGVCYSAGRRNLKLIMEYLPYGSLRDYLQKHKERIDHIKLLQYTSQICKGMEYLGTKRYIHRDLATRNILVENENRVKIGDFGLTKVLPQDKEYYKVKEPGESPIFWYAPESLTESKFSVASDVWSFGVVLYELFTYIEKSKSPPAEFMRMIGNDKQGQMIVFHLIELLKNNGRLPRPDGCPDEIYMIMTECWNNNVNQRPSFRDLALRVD
Chain of JAK1 (P23458 875-1153): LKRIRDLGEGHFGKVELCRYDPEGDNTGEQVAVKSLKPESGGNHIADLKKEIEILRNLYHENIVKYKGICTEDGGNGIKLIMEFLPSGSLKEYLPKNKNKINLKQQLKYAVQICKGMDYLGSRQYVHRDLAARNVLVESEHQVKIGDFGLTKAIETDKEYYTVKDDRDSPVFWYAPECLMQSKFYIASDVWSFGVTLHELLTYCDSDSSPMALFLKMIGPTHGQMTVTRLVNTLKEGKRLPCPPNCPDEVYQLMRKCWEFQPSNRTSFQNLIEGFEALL

IC50 (JAK1)	IC50 (JAK2)	Compound
0.85 nM	–	CCC1(n2nc(Nc3ccc(C(=O)N4[C@@H](C)COC[C@@H]4C)c(C)c3)c3c(=O)[nH]ccc32)CCN(C(=O)OC(C)(C)C)CC1 (single isomer, unassigned) [Example 2-19, tert-butyl 4-(3-(4-((3S,5S or 3R,5R)-3,5-dimethylmorpholine-4-carbonyl)-3-methylphenylamino)-4-oxo-4,5-dihydropyrazolo[4,3-c]pyridin-1-yl)-4-ethylpiperidine-1-carboxylate]
0.79 nM	–	CCC1(n2nc(Nc3ccc(C(=O)N4[C@H](C)COC[C@H]4C)c(C)c3)c3c(=O)[nH]ccc32)CCN(C(=O)OC(C)(C)C)CC1 (single isomer, unassigned) [Example 2-20, tert-butyl 4-(3-(4-((3R,5R or 3S,5S)-3,5-dimethylmorpholine-4-carbonyl)-3-methylphenylamino)-4-oxo-4,5-dihydropyrazolo[4,3-c]pyridin-1-yl)-4-ethylpiperidine-1-carboxylate]
2.5 nM	2.5 nM	CCC1(n2nc(Nc3ccc([C@@]4(C(F)(F)F)CCCN4)cc3)c3c(=O)[nH]ccc32)CCN(C(=O)OC(C)(C)C)CC1 (single isomer, unassigned) [Example 2-34, (R or S)-tert-butyl 4-ethyl-4-(4-oxo-3-(4-(2-(trifluoromethyl)pyrrolidin-2-yl)phenylamino)-4,5-dihydropyrazolo[4,3-c]pyridin-1-yl) piperidine-1-carboxylate]
2.82 nM	3.55 nM	CCC1(n2nc(Nc3ccc([C@]4(C(F)(F)F)CCCN4)cc3)c3c(=O)[nH]ccc32)CCN(C(=O)OC(C)(C)C)CC1 (single isomer, unassigned) [Example 2-35, (S or R)-tert-butyl 4-ethyl-4-(4-oxo-3-(4-(2-(trifluoromethyl)pyrrolidin-2-yl)phenylamino)-4,5-dihydropyrazolo[4,3-c]pyridin-1-yl) piperidine-1-carboxylate]
2.38 nM	–	CCC1(n2nc(Nc3ccc(S(=O)(=O)N4CCC[C@@H]4C)cc3)c3c(=O)[nH]ccc32)CCN(C(=O)OC(C)(C)C)CC1 (single isomer, unassigned) [Example 2-38, (S or R)-tert-butyl 4-ethyl-4-(3-(4-(2-methylpyrrolidin-1-ylsulfonyl)phenylamino)-4-oxo-4,5-dihydropyrazolo[4,3-c]pyridin-1-yl) piperidine-1-carboxylate]
2.13 nM	–	CCC1(n2nc(Nc3ccc(S(=O)(=O)N4CCC[C@H]4C)cc3)c3c(=O)[nH]ccc32)CCN(C(=O)OC(C)(C)C)CC1 (single isomer, unassigned) [Example 2-39, (R or S)-tert-butyl 4-ethyl-4-(3-(4-(2-methylpyrrolidin-1-ylsulfonyl)phenylamino)-4-oxo-4,5-dihydropyrazolo[4,3-c]pyridin-1-yl) piperidine-1-carboxylate]
1.23 nM	0.89 nM	CCC1(n2nc(Nc3ccc(C(=O)N4CCOCC(C)C4)c(C)c3)c3c(=O)[nH]ccc32)CCN(C(=O)OC(C)(C)C)CC1 (single isomer, unassigned) [Example 3-19, tert-butyl 4-ethyl-4-[3-({3-methyl-4-[(6R or 6S-methyl-1,4-oxazepan-4-yl)carbonyl]phenyl}amino)-4-oxo-4,5-dihydro-1H-pyrazolo [4,3-c]pyridin-1-yl] piperidine-1-carboxylate]
0.99 nM	0.53 nM	CCC1(n2nc(Nc3ccc(C(=O)N4CCOCC(C)C4)c(C)c3)c3c(=O)[nH]ccc32)CCN(C(=O)OC(C)(C)C)CC1 (single isomer, unassigned) [Example 3-20, tert-butyl 4-ethyl-4-[3-({3-methyl-4-[(6R or 6S-methyl-1,4-oxazepan-4-yl)carbonyl]phenyl}amino)-4-oxo-4,5-dihydro-1H-pyrazolo[4,3-c]pyridin-1-yl] piperidine-1-carboxylate]
–	0.87 nM	CCC1(n2nc(Nc3ccc(C(=O)N4CCCOC(C)C4)c(C)c3)c3c(=O)[nH]ccc32)CCN(C(=O)OC(C)(C)C)CC1 (single isomer, unassigned) [Example 3-22, tert-butyl 4-ethyl-4-[3-({3R or 3S-methyl-4-[(2-methyl-1,4-oxazepan-4-yl)carbonyl]phenyl}amino)-4-oxo-4,5-dihydro-1H-pyrazolo [4,3-c]pyridin-1-yl] piperidine-1-carboxylate]
–	0.7 nM	CCC1(n2nc(Nc3ccc(C(=O)N4CCCOC(C)C4)c(C)c3)c3c(=O)[nH]ccc32)CCN(C(=O)OC(C)(C)C)CC1 (single isomer, unassigned) [Example 3-23, tert-butyl 4-ethyl-4-[3-({3R or 3S-methyl-4-[(2-methyl-1,4-oxazepan-4-yl)carbonyl]phenyl}amino)-4-oxo-4,5-dihydro-1H-pyrazolo [4,3-c]pyridin-1-yl] piperidine-1-carboxylate]
0.2 nM	0.4 nM	CCC1(n2nc(Nc3ccc(S(=O)(=O)N(C)C)cc3)c3c(=O)[nH]ccc32)CCN(C(=O)OC(C)(C)C)CC1 [Example 1-1, tert-butyl 4-(3-(4-(N,N-dimethylsulfamoyl)phenylamino)-4-oxo-4,5-dihydropyrazolo[4,3-c]pyridin-1-yl)-4-ethylpiperidine-1-carboxylate]
2.86 nM	3.4 nM	CCC1(n2nc(Nc3ccc4c(c3)CN(C(C)(C)C)S4(=O)=O)c3c(=O)[nH]ccc32)CCN(C(=O)OC(C)(C)C)CC1 [Example 1-2]
0.12 nM	0.64 nM	CCC1(n2nc(Nc3ccc(S(C)(=O)=O)cc3)c3c(=O)[nH]ccc32)CCN(C(=O)OC(C)(C)C)CC1 [Example 1-3, tert-butyl 4-ethyl-4-(3-(4-(methylsulfonyl)phenyl-amino)-4-oxo-4,5-dihydropyrazolo[4,3-c]pyridin-1-yl)piperidine-1-carboxylate]
0.47 nM	0.49 nM	CCC1(n2nc(Nc3ccc(C(=O)N4CC5CCC(C4)O5)c(C)c3)c3c(=O)[nH]ccc32)CCN(C(=O)OC(C)(C)C)CC1 [Example 2-1, tert-butyl 4-(3-((4-(8-oxa-3-azabicyclo[3.2.1]octane-3-carbonyl)-3-methylphenyl)amino)-4-oxo-4,5-dihydro-1H-pyrazolo[4,3-c]pyridin-1-yl)-4-ethylpiperidine-1-carboxylate]
3.21 nM	3.16 nM	CCC1(n2nc(Nc3ccc4c(c3)CN(C3(C)CCC(F)(F)CC3)C4=O)c3c(=O)[nH]ccc32)CCN(C(=O)OC(C)(C)C)CC1 [Example 2-2, tert-butyl 4-(3-(2-(4,4-difluoro-1-methylcyclohexyl)-1-oxoisoindolin-5-ylamino)-4-oxo-4,5-dihydropyrazolo[4,3-c]pyridin-1-yl)-4-ethylpiperidine-1-carboxylate]
10.2 nM	71.3 nM	CCC1(n2nc(Nc3ccc(C4CCN(CC(F)(F)F)CC4)cc3)c3c(=O)[nH]ccc32)CCN(C(=O)OC(C)(C)C)CC1 [Example 2-3, tert-butyl 4-ethyl-4-(4-oxo-3-(4-(1-(2,2,2-trifluoroethyl)piperidin-4-yl)phenylamino)-4,5-dihydropyrazolo [4,3-c]pyridin-1-yl) piperidine-1-carboxylate]
0.37 nM	0.56 nM	CCC1(n2nc(Nc3ccc(C4CCN(C)CC4)cc3)c3c(=O)[nH]ccc32)CCN(C(=O)OC(C)(C)C)CC1 [Example 2-4, tert-butyl 4-ethyl-4-(3-(4-(1-methylpiperidin-4-yl)phenylamino)-4-oxo-4,5-dihydropyrazolo[4,3-c]pyridin-1-yl) piperidine-1-carboxylate]
0.54 nM	0.6 nM	CCC1(n2nc(Nc3ccc4c(c3)CN(C3CCOCC3)S4(=O)=O)c3c(=O)[nH]ccc32)CCN(C(=O)OC(C)(C)C)CC1 [Example 2-5, tert-butyl 4-ethyl-4-(3-{[2-(oxan-4-yl)-1,1-dioxo-2,3-dihydro-1,2-benzothiazol-5-yl]amino}-4-oxo-1H,4H,5H-pyrazolo [4,3-c]pyridin-1-yl) piperidine-1-carboxylate]
0.51 nM	0.51 nM	CCC1(n2nc(Nc3ccc(C(=O)N4CCOC[C@@H]4C)c(C)c3)c3c(=O)[nH]ccc32)CCN(C(=O)OC(C)(C)C)CC1 [Example 2-6, (S)-tert-butyl 4-ethyl-4-(3-((3-methyl-4-(3-methylmorpholine-4-carbonyl)phenyl)amino)-4-oxo-4,5-dihydro-1H-pyrazolo[4,3-c]pyridin-1-yl) piperidine-1-carboxylate]
0.61 nM	–	CCC1(n2nc(Nc3ccc(C(=O)N4[C@H](C)COC[C@@H]4C)c(C)c3)c3c(=O)[nH]ccc32)CCN(C(=O)OC(C)(C)C)CC1 [Example 2-18, tert-butyl 4-(3-(4-((3S,5R)-3,5-dimethylmorpholine-4-carbonyl)-3-methylphenylamino)-4-oxo-2,3,4,5-tetrahydropyrazolo[4,3-c]pyridin-1-yl)-4-ethylpiperidine-1-carboxylate]
